Measured values from ChEMBL document CHEMBL5696443 (Clin Cancer Res, 2016).
The source made the active and inactive calls. No cut-off for these calls is given here.

What was measured:
Insulin receptor = Insulin receptor (Homo sapiens, UniProt P06213); experiment: Inhibition of human INSR using poly (Glu, Tyr)4:1 as substrate in presence of [gamma33P]-ATP by HotSpot assay
[1] = biological target: Ribosomal protein S6 kinase alpha-2 (Homo sapiens, UniProt Q15349); experiment: Inhibition of human RPS6kA2 using KKLNRTLSVA as substrate in presence of [gamma33P]-ATP by HotSpot assay
Sequence of Ribosomal protein S6 kinase alpha-2 (Q15349 whole entry): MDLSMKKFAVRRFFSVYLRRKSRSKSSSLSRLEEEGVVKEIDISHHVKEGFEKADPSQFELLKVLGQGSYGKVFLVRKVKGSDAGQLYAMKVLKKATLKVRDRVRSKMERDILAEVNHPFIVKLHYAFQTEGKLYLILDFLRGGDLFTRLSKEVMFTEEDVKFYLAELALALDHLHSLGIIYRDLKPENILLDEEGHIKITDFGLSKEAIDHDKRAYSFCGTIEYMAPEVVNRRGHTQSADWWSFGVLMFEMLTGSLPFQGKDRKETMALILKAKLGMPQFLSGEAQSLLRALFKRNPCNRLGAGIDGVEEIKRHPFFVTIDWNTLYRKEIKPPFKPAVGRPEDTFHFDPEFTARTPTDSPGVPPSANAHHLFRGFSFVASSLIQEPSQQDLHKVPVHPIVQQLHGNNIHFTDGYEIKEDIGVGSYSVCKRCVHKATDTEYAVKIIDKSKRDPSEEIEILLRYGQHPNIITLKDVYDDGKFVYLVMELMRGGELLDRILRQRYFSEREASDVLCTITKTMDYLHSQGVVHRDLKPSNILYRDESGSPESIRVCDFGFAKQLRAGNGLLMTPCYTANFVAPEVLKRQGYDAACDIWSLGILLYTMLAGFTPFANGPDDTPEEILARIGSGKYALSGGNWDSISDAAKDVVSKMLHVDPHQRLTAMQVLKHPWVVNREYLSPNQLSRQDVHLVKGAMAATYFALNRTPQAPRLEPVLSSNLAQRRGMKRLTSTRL

[2] = biological target: Serine/threonine-protein kinase 10 (Homo sapiens, UniProt O94804); experiment: Inhibition of human STK10 using RLGRDKYKTLRQIRQ as substrate in presence of [gamma33P]-ATP by HotSpot assay
[3] = biological target: Tyrosine-protein kinase BTK (Homo sapiens, UniProt Q06187); experiment: Inhibition of human BTK using poly (Glu, Tyr)4:1 as substrate in presence of [gamma33P]-ATP by HotSpot assay
[4] = biological target: cGMP-dependent protein kinase 1 (Homo sapiens, UniProt Q13976); experiment: Inhibition of human PRKG1 using LRRASLG as substrate in presence of [gamma33P]-ATP by HotSpot assay
Angiopoietin-1 receptor = Angiopoietin-1 receptor (Homo sapiens, UniProt Q02763); experiment: Inhibition of human TEK using poly (Glu, Tyr)4:1 as substrate in presence of [gamma33P]-ATP by HotSpot assay
Homo sapiens = species: Homo sapiens; experiment: Inhibition of human BRAF V600E at 1 uM using MEK1 as substrate in presence of [gamma33P]-ATP by HotSpot assay relative to control
[5] = biological target: Casein kinase I isoform gamma-2 (Homo sapiens) (UniProt P78368); experiment: Inhibition of human CSNK1G2 at 1 uM using KRRRAL[pS]VASLPGL as substrate in presence of [gamma33P]-ATP by HotSpot assay relative to control
Sequence of Casein kinase I isoform gamma-2 (Homo sapiens) (P78368 whole entry, looked up, canonical isoform): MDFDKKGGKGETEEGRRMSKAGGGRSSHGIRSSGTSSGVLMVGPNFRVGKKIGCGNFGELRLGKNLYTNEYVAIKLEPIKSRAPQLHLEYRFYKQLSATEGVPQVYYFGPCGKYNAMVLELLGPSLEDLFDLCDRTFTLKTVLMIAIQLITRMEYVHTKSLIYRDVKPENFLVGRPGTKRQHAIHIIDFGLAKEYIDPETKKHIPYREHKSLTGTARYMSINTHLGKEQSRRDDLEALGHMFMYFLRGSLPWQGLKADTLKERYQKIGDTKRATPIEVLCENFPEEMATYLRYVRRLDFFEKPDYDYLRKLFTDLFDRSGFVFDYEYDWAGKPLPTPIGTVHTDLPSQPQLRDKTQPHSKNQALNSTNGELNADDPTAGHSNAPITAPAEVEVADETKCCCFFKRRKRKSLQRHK

[6] = biological target: Myotonin-protein kinase (Homo sapiens) (UniProt Q09013); experiment: Inhibition of human DMPK at 1 uM using KKRNRRLSVA as substrate in presence of [gamma33P]-ATP by HotSpot assay relative to control
[7] = biological target: Dual specificity tyrosine-phosphorylation-regulated kinase 1A (Homo sapiens) (UniProt Q13627); experiment: Inhibition of human DYRK1A at 1 uM using RRRFRPASPLRGPPK as substrate in presence of [gamma33P]-ATP by HotSpot assay relative to control
[8] = biological target: Ephrin type-A receptor 8 (Homo sapiens) (UniProt P29322); experiment: Inhibition of human EPHA8 at 1 uM using poly (Glu, Tyr)4:1 as substrate in presence of [gamma33P]-ATP by HotSpot assay relative to control
Sequence of Ephrin type-A receptor 8 (Homo sapiens) (P29322 whole entry): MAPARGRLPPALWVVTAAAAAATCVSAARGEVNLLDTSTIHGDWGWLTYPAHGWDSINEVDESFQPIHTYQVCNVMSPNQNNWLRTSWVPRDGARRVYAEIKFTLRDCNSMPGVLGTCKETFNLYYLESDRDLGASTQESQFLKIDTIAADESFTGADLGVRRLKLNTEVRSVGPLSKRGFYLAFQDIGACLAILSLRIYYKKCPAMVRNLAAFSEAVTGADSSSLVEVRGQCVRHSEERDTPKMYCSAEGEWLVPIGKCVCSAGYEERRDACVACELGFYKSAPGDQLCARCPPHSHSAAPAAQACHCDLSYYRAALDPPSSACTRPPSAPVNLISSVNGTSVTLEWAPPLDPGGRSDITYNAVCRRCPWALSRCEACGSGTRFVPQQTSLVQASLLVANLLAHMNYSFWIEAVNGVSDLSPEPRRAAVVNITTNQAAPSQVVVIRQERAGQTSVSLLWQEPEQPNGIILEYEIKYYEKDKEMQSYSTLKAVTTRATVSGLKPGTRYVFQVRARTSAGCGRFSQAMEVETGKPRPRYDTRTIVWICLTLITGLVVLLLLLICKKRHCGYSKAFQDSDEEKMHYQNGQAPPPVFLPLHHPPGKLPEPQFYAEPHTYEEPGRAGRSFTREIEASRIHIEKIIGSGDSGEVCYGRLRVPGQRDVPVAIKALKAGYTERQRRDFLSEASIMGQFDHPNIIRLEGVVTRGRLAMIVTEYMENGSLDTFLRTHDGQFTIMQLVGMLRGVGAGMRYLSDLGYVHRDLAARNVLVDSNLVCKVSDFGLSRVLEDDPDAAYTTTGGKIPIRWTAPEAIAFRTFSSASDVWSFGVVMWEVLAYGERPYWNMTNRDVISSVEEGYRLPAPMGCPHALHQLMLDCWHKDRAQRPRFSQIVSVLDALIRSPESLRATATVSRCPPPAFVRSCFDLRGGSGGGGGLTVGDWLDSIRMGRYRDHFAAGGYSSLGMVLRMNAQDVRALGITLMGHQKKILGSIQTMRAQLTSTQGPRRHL

[9] = biological target: Mitogen-activated protein kinase kinase kinase kinase 2 (Homo sapiens) (UniProt Q12851); experiment: Inhibition of human GCK at 1 uM using MBP as substrate in presence of [gamma33P]-ATP by HotSpot assay relative to control
[10] = biological target: G protein-coupled receptor kinase 4 (Homo sapiens) (UniProt P32298); experiment: Inhibition of human GRK4 at 1 uM using casein as substrate in presence of [gamma33P]-ATP by HotSpot assay relative to control
[11] = biological target: Mitogen-activated protein kinase kinase kinase kinase 4 (Homo sapiens) (UniProt O95819); experiment: Inhibition of human MAP4K4 at 1 uM using MBP as substrate in presence of [gamma33P]-ATP by HotSpot assay relative to control
Sequence of Mitogen-activated protein kinase kinase kinase kinase 4 (Homo sapiens) (O95819 2-1239 limits assumed): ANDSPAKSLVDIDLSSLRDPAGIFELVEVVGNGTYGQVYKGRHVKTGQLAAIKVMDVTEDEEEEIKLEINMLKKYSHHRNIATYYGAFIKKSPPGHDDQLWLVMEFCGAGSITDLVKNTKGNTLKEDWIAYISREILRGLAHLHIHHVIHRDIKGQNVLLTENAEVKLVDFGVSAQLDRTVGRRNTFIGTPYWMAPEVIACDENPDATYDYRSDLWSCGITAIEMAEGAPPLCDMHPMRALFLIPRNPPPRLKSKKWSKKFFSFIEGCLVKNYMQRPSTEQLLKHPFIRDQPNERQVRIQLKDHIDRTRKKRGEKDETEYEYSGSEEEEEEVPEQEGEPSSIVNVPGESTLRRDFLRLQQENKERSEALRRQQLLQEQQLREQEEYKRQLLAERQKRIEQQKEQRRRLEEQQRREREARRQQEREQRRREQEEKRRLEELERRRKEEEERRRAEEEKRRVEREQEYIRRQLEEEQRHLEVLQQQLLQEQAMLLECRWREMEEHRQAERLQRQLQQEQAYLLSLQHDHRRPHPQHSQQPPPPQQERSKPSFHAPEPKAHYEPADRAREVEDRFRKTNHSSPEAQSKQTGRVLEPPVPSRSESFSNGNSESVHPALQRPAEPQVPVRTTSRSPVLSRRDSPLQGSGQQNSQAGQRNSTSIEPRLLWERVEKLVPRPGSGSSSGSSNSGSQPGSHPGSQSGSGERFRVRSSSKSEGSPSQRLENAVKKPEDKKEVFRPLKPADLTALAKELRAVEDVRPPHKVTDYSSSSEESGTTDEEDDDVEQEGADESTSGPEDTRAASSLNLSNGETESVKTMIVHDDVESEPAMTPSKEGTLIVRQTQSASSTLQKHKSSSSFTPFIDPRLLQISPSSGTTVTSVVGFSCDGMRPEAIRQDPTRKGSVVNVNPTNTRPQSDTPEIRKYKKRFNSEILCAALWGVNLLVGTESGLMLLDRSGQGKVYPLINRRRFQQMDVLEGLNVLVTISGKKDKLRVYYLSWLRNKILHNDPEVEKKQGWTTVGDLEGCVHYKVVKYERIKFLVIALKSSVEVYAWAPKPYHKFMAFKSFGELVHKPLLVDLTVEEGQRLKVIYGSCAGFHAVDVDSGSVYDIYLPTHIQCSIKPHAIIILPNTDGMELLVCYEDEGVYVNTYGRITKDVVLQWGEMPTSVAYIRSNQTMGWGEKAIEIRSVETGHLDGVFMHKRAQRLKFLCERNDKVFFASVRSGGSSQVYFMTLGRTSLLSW

[12] = biological target: Serine/threonine-protein kinase Nek3 (Homo sapiens) (UniProt P51956); experiment: Inhibition of human NEK3 at 1 uM using MBP as substrate in presence of [gamma33P]-ATP by HotSpot assay relative to control
Sequence of Serine/threonine-protein kinase Nek3 (Homo sapiens) (P51956 whole entry): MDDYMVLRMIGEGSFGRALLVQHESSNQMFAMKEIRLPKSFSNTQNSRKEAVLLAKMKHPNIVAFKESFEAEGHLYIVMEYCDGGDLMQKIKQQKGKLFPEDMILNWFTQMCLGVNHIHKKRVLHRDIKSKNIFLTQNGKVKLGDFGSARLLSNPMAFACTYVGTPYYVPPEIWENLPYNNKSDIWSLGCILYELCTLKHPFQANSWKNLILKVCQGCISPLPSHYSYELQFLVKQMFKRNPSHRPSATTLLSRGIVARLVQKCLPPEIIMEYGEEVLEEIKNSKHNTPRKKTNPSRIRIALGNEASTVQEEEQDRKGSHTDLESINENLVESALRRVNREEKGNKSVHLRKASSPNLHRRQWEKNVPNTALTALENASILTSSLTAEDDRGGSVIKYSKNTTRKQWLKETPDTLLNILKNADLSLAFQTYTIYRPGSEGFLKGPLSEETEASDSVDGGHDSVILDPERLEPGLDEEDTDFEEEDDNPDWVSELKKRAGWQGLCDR

[13] = biological target: NT-3 growth factor receptor (Homo sapiens) (UniProt Q16288); experiment: Inhibition of human NTRK3 at 1 uM using poly (Glu, Tyr)4:1 as substrate in presence of [gamma33P]-ATP by HotSpot assay relative to control
[14] = biological target: Serine/threonine-protein kinase PAK 3 (Homo sapiens) (UniProt O75914); experiment: Inhibition of human PAK3 at 1 uM using RRRLSFAEPG as substrate in presence of [gamma33P]-ATP by HotSpot assay relative to control
Sequence of Serine/threonine-protein kinase PAK 3 (Homo sapiens) (O75914 whole entry, looked up): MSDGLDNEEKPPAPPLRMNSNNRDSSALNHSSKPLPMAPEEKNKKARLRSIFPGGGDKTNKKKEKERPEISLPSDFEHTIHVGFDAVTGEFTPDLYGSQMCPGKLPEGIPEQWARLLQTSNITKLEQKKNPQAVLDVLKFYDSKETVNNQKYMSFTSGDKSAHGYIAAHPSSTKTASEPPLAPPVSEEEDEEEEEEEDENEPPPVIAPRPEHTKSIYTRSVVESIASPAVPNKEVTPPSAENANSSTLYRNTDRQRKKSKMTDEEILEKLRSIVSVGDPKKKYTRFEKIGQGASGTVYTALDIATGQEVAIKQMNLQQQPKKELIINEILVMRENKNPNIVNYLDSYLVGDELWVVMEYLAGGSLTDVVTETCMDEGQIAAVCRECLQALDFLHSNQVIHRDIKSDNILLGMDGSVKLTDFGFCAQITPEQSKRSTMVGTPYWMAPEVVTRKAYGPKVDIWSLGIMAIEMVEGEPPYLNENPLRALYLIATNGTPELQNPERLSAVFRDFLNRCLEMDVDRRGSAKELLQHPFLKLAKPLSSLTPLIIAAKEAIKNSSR

[15] = system: Platelet-derived growth factor receptor alpha (Homo sapiens), P16234 [T674I]; experiment: Inhibition of human PDGFRalpha T674I mutant at 1 uM using poly (Glu, Tyr)4:1 as substrate in presence of [gamma33P]-ATP by HotSpot assay relative to control
[16] = biological target: Protein kinase C beta type (Homo sapiens) (UniProt P05771); experiment: Inhibition of human PKCb2 at 1 uM using ERMRPRKRQGSVRRRV as substrate in presence of [gamma33P]-ATP by HotSpot assay relative to control
[17] = biological target: Protein kinase C iota type (Homo sapiens) (UniProt P41743); experiment: Inhibition of human PRKCI at 1 uM using ERMRPRKRQGSVRRRV as substrate in presence of [gamma33P]-ATP by HotSpot assay relative to control
Sequence of Protein kinase C iota type (Homo sapiens) (P41743 whole entry): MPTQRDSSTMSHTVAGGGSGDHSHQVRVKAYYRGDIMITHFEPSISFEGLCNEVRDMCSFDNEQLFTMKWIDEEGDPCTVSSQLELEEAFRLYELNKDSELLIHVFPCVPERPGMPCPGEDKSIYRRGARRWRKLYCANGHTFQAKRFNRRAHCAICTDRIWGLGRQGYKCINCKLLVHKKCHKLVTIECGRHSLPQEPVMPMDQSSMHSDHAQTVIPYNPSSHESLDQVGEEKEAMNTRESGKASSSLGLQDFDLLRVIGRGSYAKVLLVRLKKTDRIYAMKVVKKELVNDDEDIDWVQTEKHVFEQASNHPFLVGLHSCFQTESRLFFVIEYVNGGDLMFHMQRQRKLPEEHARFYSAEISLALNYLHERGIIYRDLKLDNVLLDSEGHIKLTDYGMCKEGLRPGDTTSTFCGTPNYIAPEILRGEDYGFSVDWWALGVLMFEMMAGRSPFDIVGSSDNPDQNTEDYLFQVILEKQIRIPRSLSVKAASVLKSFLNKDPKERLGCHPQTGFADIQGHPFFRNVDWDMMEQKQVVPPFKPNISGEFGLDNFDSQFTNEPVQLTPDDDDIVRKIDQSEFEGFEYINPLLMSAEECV

NCI-H2228 [18] = experiment: Antitumor activity against ALK positive human NCI-H2228 cells xenografted in SCID beige mouse assessed as tumor regression at 10 to 50 mg/kg, po administered once daily for 21 days and measured 28 days after treatment; format: functional, organism-based; details: dose 10-50 mg/kg, time 28.0 day
NCI-H2228 [19] = experiment: Antitumor activity against ALK positive human NCI-H2228 cells xenografted in CB-17/SCID orthotopic brain tumor mouse model assessed as median survival time at 25 mg/kg po administered daily and measured after 64 days (reference value: 28 days); format: functional; details: time 64 day
NCI-H2228 [20] = experiment: Antitumor activity against ALK positive human NCI-H2228 cells xenografted in CB-17/SCID orthotopic brain tumor mouse model assessed as median survival time at 50 mg/kg po administered daily and measured after 64 days (reference value: 28 days); format: functional; details: time 64 day
[21] = system: Epidermal growth factor receptor (Homo sapiens), P00533 [UNDEFINED MUTATION]; details: BaF3, time 72.0 hrs
[22] = system: EML4-ALK (Homo sapiens), Q9UM73+Q9HC35 [I1171N]; details: BaF3, time 3-5 weeks
[23] = system: EML4-ALK (Homo sapiens), Q9UM73+Q9HC35 [E1210K]; details: BaF3, dose 200.0 nmol/L, time 3-5 weeks
[24] = system: EML4-ALK (Homo sapiens), Q9UM73+Q9HC35 [L1198F]; details: BaF3, dose 500.0 nmol/L, time 3-5 weeks
[25] = system: EML4-ALK (Homo sapiens), Q9UM73+Q9HC35 [F1174V]; details: BaF3, dose 500.0 nmol/L, time 3-5 weeks
[26] = system: EML4-ALK (Homo sapiens), Q9UM73+Q9HC35 [D1203N]; details: BaF3, dose 500.0 nmol/L, time 3-5 weeks

`COc1cc(N2CCC(N3CCN(C)CC3)CC2)ccc1Nc1ncc(Cl)c(Nc2ccccc2P(C)(C)=O)n1` [BRIGATINIB] was tested, and the IC50 (Insulin receptor) was 0.16 µM, the IC50 [1] was 0.013 µM and the IC50 [2] was 0.123 µM. The IC50 [3] was 0.674 µM, the IC50 [4] was greater than 1 µM and the IC50 (Angiopoietin-1 receptor) was greater than 1 µM. For the same compound, the inhibition (Homo sapiens) was less than 90%, the inhibition [5] was less than 90% and the inhibition [6] was less than 90%. For the same compound, the inhibition [7] was less than 90%, the inhibition [8] was less than 90% and the inhibition [9] was less than 90%. For the same compound, the inhibition [10] was less than 90%, the inhibition [11] was less than 90% and the inhibition [12] was less than 90%. For the same compound, the inhibition [13] was less than 90%, the inhibition [14] was less than 90% and the inhibition [15] was less than 90%. For the same compound, the inhibition [16] was less than 90%, the inhibition [17] was less than 90% and the Activity (NCI-H2228 [18]) was “Active”. For the same compound, the MSD (NCI-H2228 [19]) was 62 days, the MSD (NCI-H2228 [20]) was greater than 64 days and the IC90 [21] was 0.314 µM. For the same compound, the IC90 [22] was 0.278 µM, the inhibition [23] was “inactive” and the inhibition [24] was “Active”. For the same compound, the inhibition [25] was “Active” and the inhibition [26] was “Active”.
